Experimental data published in patent US11512203B2, “Water-soluble azo compound or salt thereof, ink and recording medium” (Nippon Kayaku Kabushiki Kaisha, priority 2016, dated 2022).

What was measured:
Format in all cases: physicochemical
[1] = Xenon light resistance test, inks of Examples 1, 2 (Table 48); settings: xenon 100 klux, 168 hours, 24° C., 60% RH, 55% density gradation, grade of coloring matter persistence rate; for Results from light resistance tests, Glossy paper 3: ink on Brother BP71G; for Results from light resistance tests, Glossy paper 1: ink on Canon Photograph paper, platinum grade (PT-201); for Results from light resistance tests, Glossy paper 4: ink on FUJIFILM Gasai Photo-finishing Pro; for Results from light resistance tests, Glossy paper 2: ink on Seiko Epson Photograph paper Crispia
Description: Components shown in Table 47 below were mixed to obtain solutions, which were then subjected to precision filtration through 0.45 μm membrane filters to prepare inks of Examples 1, 2 and Comparative Examples 1, 2. The numerical values in the table are in terms of “parts,” and the symbol “-” means that that component is not included. In Table 47 below, the component […] is indicated as “remainder”.
Ink-jet recording was performed with an ink-jet printer (Canon, Inc., Product name: PIXUS ip7230) to allow each of the inks from Examples 1, 2 and Comparative Examples 1, 2 to be attached on the following glossy papers 1 to 4. Upon performing recording, image patterns were created so that the density can be obtained in a gradation of 6 levels: 100%, 85%, 70%, 55%, 40%, and 25% to obtain a half-tone recorded article. The resulting recorded article was used as a test piece to perform the following tests.
(§1) Glossy paper 1: Canon, Inc., Product name: Canon Photograph paper, platinum grade (PT-201)
(§2) Glossy paper 2: Seiko Epson Corporation, Product name: Photograph paper Crispia
(§3) Glossy paper 3: Brother Industries, Ltd., Product name: BP71G
(§4) Glossy paper 4: FUJIFILM Corporation, Product name: Gasai Photo-finishing Pro
When required, color measurements were performed for a recorded image using a colorimeter (Product name SpectroEye from X-rite, Inc.). Color measurements were performed under the conditions of a density standard of ANSI A, a wide viewing angle of 2 degrees, a light source of D50.
A test piece with a holder was placed in a xenon weatherometer XL75 (Suga Test Instruments Co., Ltd.), and irradiated for 168 hours at a temperature of 24° C., a humidity of 60% RH, and an illuminance of 100 klux. A gradation portion with a density of 55% of each test piece was subjected to color measurements of reflection densities before and after the test. A coloring matter persistence rate was computed from the reflection densities obtained, and evaluation was performed using the following 3-grade criteria.
A coloring matter persistence rate of 85% or more: A A coloring matter persistence rate of 81% or more and less than 85%: B
A coloring matter persistence rate of less than 81%: C
(Formula for Computing Coloring Matter Persistence Rate) Coloring matter persistence rate (%)=(reflection density after test/reflection density before test)×100

[2] = Xenon light resistance test, ink of Example 4 (Table 50); settings: for each glossy paper (Table 50)
Description: An ink of Example 4 was prepared as in Example 1 except that the compound represented by the above formula (104) was used instead of the compound represented by the above formula (101).
Ink-jet recording was performed with an ink-jet printer (Canon, Inc., Product name: PIXUS ip7230) to allow each of the inks from Examples 4 and Comparative Examples 1, 2 above to be attached on the following glossy papers 1 to 4. Upon performing recording, image patterns were created so that the density can be obtained in a gradation of 6 levels: 100%, 85%, 70%, 55%, 40%, and 25% to obtain a half-tone recorded article. The resulting recorded article was used as a test piece to perform the following tests.
as §1, §2, §3, §4
When required, color measurements of a recorded image were performed using a colorimeter (Product name SpectroEye from X-rite, Inc.). Color measurements were performed under the conditions of a density standard of DIN NB, a wide viewing angle of 2 degrees, a light source of D65. […]

[3] = Xenon light resistance test, inks of Examples 10 to 12 (Table 53); settings: Glossy paper 1 Canon GL-101, 2 Epson Crispia, 3 Brother BP71G
Description: Inks of Examples 10 to 12 were prepared as in Example 1 except that the compounds represented by the above formulae (110) to (112) were used, respectively, instead of the compound represented by the above formula (101).
Ink-jet recording was performed with an ink-jet printer (Canon, Inc., Product name: PIXUS ip7230) to allow each of the inks from Examples 10 to 12 and Comparative Examples 1, 2 above to be attached on the following glossy papers 1 to 3. Upon performing recording, image patterns were created so that the density can be obtained in a gradation of 6 levels: 100%, 85%, 70%, 55%, 40%, and 25% to obtain a half-tone recorded article. The resulting recorded article was used as a test piece to perform the following tests.
(§5) Glossy paper 1: Canon, Inc., Product name: Canon Photograph paper, gold grade (GL-101)
as §2, §3
(§6) When required, color measurements of a recorded image were performed using a colorimeter (Product name SpectroEye from X-rite, Inc.). Color measurements were performed under the conditions of a density standard of ANSI A, a wide viewing angle of 2 degrees, a light source of D50. […]

[4] = Xenon light resistance test, ink of Example 13 (Table 54); settings: Glossy paper 1 Canon GL-101, 2 Epson Photograph paper <glossy>, 3 FUJIFILM Gasai Photo-finishing Pro
Description: An ink of Example 13 was prepared as in Example 1 except that the compound represented by the above formula (113) was used instead of the compound represented by the above formula (101).
Ink-jet recording was performed with an ink-jet printer (Canon, Inc., Product name: PIXUS ip7230) to allow each of the inks from Example 13 and Comparative Examples 1, 2 above to be attached on the following glossy papers 1 to 3. Upon performing recording, image patterns were created so that the density can be obtained in a gradation of 6 levels: 100%, 85%, 70%, 55%, 40%, and 25% to obtain a half-tone recorded article. The resulting recorded article was used as a test piece to perform the following tests.
as §5
Glossy paper 2: Seiko Epson Corporation, Product name: Photograph paper
Glossy paper 3: FUJIFILM Corporation, Product name: Gasai Photo-finishing Pro
as §6

[5] = Xenon light resistance test, ink of Example 16 (Table 56)
Description: An ink of Example 16 was prepared as in Example 1 except that the compound represented by the above formula (116) was used instead of the compound represented by the above formula (101).
Ink-jet recording was performed with an ink-jet printer (Canon, Inc., Product name: PIXUS ip7230) to allow each of the inks from Example 16 and Comparative Examples 1, 2 above to be attached on the following glossy papers 1 to 4. Upon performing recording, image patterns were created so that the density can be obtained in a gradation of 6 levels: 100%, 85%, 70%, 55%, 40%, and 25% to obtain a half-tone recorded article. The resulting recorded article was used as a test piece to perform the following tests.
as §1
Glossy paper 2: Canon, Inc., Product name: Canon Photograph paper, gold grade (GL-101)
Glossy paper 3: Seiko Epson Corporation, Product name: Photograph paper Crispia
Glossy paper 4: Brother Industries, Ltd., Product name: BP71G
as §6

[6] = Xenon light resistance test, ink of Example 17 (Table 57)
Description: An ink of Example 17 was prepared as in Example 1 except that the compound represented by the above formula (117) was used instead of the compound represented by the above formula (101).
Ink-jet recording was performed with an ink-jet printer (Canon, Inc., Product name: PIXUS ip7230) to allow each of the inks from Example 17 and Comparative Examples 1, 2 above to be attached on the following glossy papers 1, 2. Upon performing recording, image patterns were created so that the density can be obtained in a gradation of 6 levels: 100%, 85%, 70%, 55%, 40%, and 25% to obtain a half-tone recorded article. The resulting recorded article was used as a test piece to perform the following tests.
as §1
Glossy paper 2: FUJIFILM Corporation, Product name: Gasai Photo-finishing Pro
When required, color measurements of a recorded image were performed using a colorimeter (Product name SpectroEye from X-rite, Inc.). Color measurements were performed under the conditions of a density standard of ANSI A, a wide viewing angle of 2 degrees, a light source of D50.
A test piece with a holder was placed in a xenon weatherometer XL75 (Suga Test Instruments Co., Ltd.), and irradiated for 168 hours at a temperature of 24° C., a humidity of 60% RH, and an illuminance of 100 klux. […]

## O=S(=O)(O)CCCOc1cc(N=Nc2ccc(Cl)c(S(=O)(=O)O)c2)c(Cl)cc1Nc1nc(NCCO)nc(Nc2cc(Cl)c(N=Nc3ccc(Cl)c(S(=O)(=O)O)c3)cc2OCCCS(=O)(=O)O)n1 [Comparative Example 1]
[1]
  Results from light resistance tests, Glossy paper 3: B (A coloring matter persistence rate of 81% or more and less than 85%)
  Results from light resistance tests, Glossy paper 1: B (A coloring matter persistence rate of 81% or more and less than 85%)
  Results from light resistance tests, Glossy paper 4: C (A coloring matter persistence rate of less than 81%)
  Results from light resistance tests, Glossy paper 2: B (A coloring matter persistence rate of 81% or more and less than 85%)

## COc1cc(N=Nc2cccc(S(=O)(=O)O)c2)ccc1NC(=O)Nc1ccc(N=Nc2cccc(S(=O)(=O)O)c2)cc1OC [Comparative Example 2, C.I. Direct Yellow 132]
[1]
  Results from light resistance tests, Glossy paper 3: B (A coloring matter persistence rate of 81% or more and less than 85%)
  Results from light resistance tests, Glossy paper 1: B (A coloring matter persistence rate of 81% or more and less than 85%)
  Results from light resistance tests, Glossy paper 4: B (A coloring matter persistence rate of 81% or more and less than 85%)
  Results from light resistance tests, Glossy paper 2: C (A coloring matter persistence rate of less than 81%)

## COCCCNc1nc(Nc2cc(Cl)c(N=Nc3ccc(Cl)c(S(=O)(=O)O)c3)cc2OCCCS(=O)(=O)O)nc(Nc2cc(Cl)c(N=Nc3ccc(Cl)c(S(=O)(=O)O)c3)cc2OCCCS(=O)(=O)O)n1 [Example 4]
[2]
  light resistance tests, results compared with Comparative Examples 1, 2: better results

## CCNc1nc(Nc2cc(Cl)c(N=Nc3ccc(Cl)c(S(=O)(=O)O)c3)cc2OCCCS(=O)(=O)O)nc(Nc2cc(Cl)c(N=Nc3ccc(Cl)c(S(=O)(=O)O)c3)cc2OCCCS(=O)(=O)O)n1 [Example 10]
[3]
  light resistance results as compared with Comparative Example 2: better results for each glossy paper

## O=S(=O)(O)CCCOc1cc(N=Nc2ccc(Cl)c(S(=O)(=O)O)c2)c(Cl)cc1Nc1nc(Nc2cc(Cl)c(N=Nc3ccc(Cl)c(S(=O)(=O)O)c3)cc2OCCCS(=O)(=O)O)nc(NC(CO)CO)n1 [Example 13]
[4]
  light resistance results as compared with Comparative Example 2: better results for each glossy paper

## O=S(=O)(O)CCCOc1cc(N=Nc2ccc(Cl)c(S(=O)(=O)O)c2)c(Cl)cc1Nc1nc(NCC2CCCO2)nc(Nc2cc(Cl)c(N=Nc3ccc(Cl)c(S(=O)(=O)O)c3)cc2OCCCS(=O)(=O)O)n1 (stereo not drawn) [Example 16]
[5]
  light resistance as compared with Comparative Examples 1, 2 (conclusion): superior light resistance
  light resistance results as compared with Comparative Examples 1, 2: good results for each glossy paper

## O=S(=O)(O)CCCOc1cc(N=Nc2ccc(Cl)c(S(=O)(=O)O)c2)c(Cl)cc1Nc1nc(Nc2cc(Cl)c(N=Nc3ccc(Cl)c(S(=O)(=O)O)c3)cc2OCCCS(=O)(=O)O)nc(N2CCCC2)n1 [Example 17]
[6]
  light resistance as compared with Comparative Examples 1, 2 (conclusion): superior light resistance
  light resistance results as compared with Comparative Examples 1, 2: good results for each glossy paper
